Among the data in patent publication US10000496B2, “Compositions useful for treating disorders related to kit and PDGFR” (BLUEPRINT MEDICINES CORPORATION, priority 2015, dated 2018) are IC50 values, retold here.

Each structure is given as a SMILES string.

As a reminder, the IC50 is the concentration at which inhibition is half-maximal.

Experiment [1] deals with T1, Kit D816V in HMC1.2 cells (Homo sapiens, UniProt P10721, D816V/V560G).
T1 construct: endogenous in cells; host or cells: HMC1.2
The experiment is described as follows: HMC1.2 autophosphorylation assay (Kit autophosphorylation at tyrosine 719, AlphaLISA). Type of experiment: cell-based. Conditions: HMC1.2 mast cell leukemia cells (Kit V560G and D816V), phospho-Y719 c-Kit, 90 minutes; read-out: Cellular Activity IC50. As to the method: 10,000 HMC1.2 cells were incubated in 22 ul culture media (phenol-red free IMDM, no serum) in each well of a 384-well plate and serum starved overnight in a tissue culture incubator (5% CO2, 37° C.). A 10-point dose concentration series of compound (25 uM-95.4 pM) were then added to the cells in a volume of 3.1 ul to each well (0.25% DMSO final concentration). After 90 minutes, 6 ul of 5× AlphaLISA Lysis Buffer (Perkin Elmer) supplemented with a protease and phosphatase inhibitor cocktail (Cell Signaling Technologies) was added to each well and shaken at 450 rpm for 15 minutes at 4° C. 10 ul of phospho-Y719 c-Kit and total c-Kit antibodies (15 nM final concentration, Cell Signaling Technologies) and 50 ug/ml AlphaLISA rabbit acceptor beads (Perkin Elmer) were added to each well and shaken at 300 rpm at room temperature for 2 hours. 10 ul of 100 ug/ml streptavidin donor beads (Perkin Elmer) were added to each well, blocked from light with aluminum adhesive and shaken at 300 rpm at room temperature for 2 hours. Fluorescence signal was obtained on Envision (Perkin Elmer) by AlphaScreen 384 well HTS protocol. Data was normalized to 0% and 100% inhibition controls and the IC50 was calculated using Four Parameter Logistic IC50 curve fitting.
This cell line contains Kit mutated at positions V560G and D816V resulting in constitutive activation of the kinase. The following compounds were tested in an assay to measure direct inhibition of Kit D816V kinase activity by assaying Kit autophosphorylation at tyrosine 719 on the Kit protein.

The target in another experiment is T2, D816V Kit (Homo sapiens, UniProt P10721, D816V).
T2 construct: purchased Carna Bioscience 08-156
The experiment is described as follows: Kit D816V assay at Km (Caliper electrophoretic mobility shift). Conditions: D816V Kit 0.5 nM, 15 uM ATP (Km), 1 uM Srctide, 25 C, 90 minutes; read-out: Biochemical Activity D816V IC50. Here is the method: In order to assess the activity of chemical compounds against the relevant kinase of interest, the Caliper LifeSciences electrophoretic mobility shift technology platform is used. Fluorescently labeled substrate peptide is incubated in the presence of kinase and ATP so that a […] proportion of the peptide is phosphorylated. At the end of the reaction, the mix of phosphorylated (product) and non-phosphorylated (substrate) peptides are passed through the microfluidic system of the Caliper EZ Reader 2, under an applied potential difference. The presence of the phosphate group on the product peptide provides a difference in mass and charge between those of the substrate peptide, resulting in a separation of the substrate and product pools in the sample. As the pools pass a LEDS within the instrument, these pools are detected and resolved as separate peaks. The ratio between these peaks therefore reflects the activity of the chemical matter at that concentration in that well, under those conditions.
Kit D816V assay at Km: In each well of a 384-well plate, 0.04 ng/ul (0.5 nM) of D816V Kit (Carna Bioscience 08-156) was incubated in a total of 12.5 ul of buffer (100 mM HEPES pH 7.5, 0.015% Brij 35, 10 mM MgCl2, 1 mM DTT) with 1 uM Srctide (5-FAM-GEEPLYWSFPAKKK-NH2) and 15 uM ATP at 25 C for 90 minutes in the presence or absence of a dosed concentration series of compound (1% DMSO final concentration). The reaction was stopped by the addition of 70 ul of Stop buffer (100 mM HEPES pH 7.5, 0.015% Brij 35, 35 mM EDTA and 0.2% of Coating Reagent 3 (Caliper Lifesciences)). The plate was then read on a Caliper EZReader 2 (protocol settings:—1.9 psi, upstream voltage—700, downstream voltage—3000, post sample sip 35s). Data was normalized to 0% and 100% inhibition controls and the IC50 or EC50 calculated using a 4-parameter fit using GraphPad Prism.

T1 sequence (P10721 26-976 V560G/D816V): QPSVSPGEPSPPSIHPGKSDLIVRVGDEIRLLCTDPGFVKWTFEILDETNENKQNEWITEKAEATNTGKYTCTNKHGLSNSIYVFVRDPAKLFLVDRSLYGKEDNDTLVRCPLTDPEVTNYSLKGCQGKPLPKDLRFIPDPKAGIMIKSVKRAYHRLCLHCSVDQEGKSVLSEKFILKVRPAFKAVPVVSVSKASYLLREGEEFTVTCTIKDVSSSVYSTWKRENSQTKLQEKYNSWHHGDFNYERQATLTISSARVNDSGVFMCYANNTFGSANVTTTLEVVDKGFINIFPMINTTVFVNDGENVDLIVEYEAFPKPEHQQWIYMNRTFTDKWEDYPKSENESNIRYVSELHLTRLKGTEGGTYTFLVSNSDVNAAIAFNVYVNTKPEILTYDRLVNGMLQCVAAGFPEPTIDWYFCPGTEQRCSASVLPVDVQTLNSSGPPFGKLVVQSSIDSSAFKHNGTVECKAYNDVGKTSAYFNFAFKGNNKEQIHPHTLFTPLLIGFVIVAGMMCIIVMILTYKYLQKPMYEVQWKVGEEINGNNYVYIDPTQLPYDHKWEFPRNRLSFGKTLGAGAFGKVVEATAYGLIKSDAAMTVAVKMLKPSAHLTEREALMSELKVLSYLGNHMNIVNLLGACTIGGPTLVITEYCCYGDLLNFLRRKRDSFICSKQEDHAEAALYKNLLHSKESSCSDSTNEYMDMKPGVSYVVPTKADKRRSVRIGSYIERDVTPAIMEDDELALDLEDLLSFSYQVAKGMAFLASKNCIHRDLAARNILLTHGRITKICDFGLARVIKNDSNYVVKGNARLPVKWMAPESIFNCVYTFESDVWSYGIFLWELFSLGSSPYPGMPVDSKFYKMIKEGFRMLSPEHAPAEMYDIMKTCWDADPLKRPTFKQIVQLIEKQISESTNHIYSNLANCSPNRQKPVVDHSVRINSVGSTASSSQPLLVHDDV
T2 sequence (P10721 26-976 D816V): as the sequence (P10721 26-976 V560G/D816V) above, with G535V counted along it

`CS(=O)(=O)c1ccc(-c2cc3c(-c4ccc(NS(=O)(=O)c5ccc(Cl)cc5)cc4)ncnn3c2)cc1` [Compound 65]: the IC50 in experiment [1] is 100 to 1000 nM; on D816V Kit it was 10 to 100 nM.
Taken in the same sequence, the figures for `Cn1cc(-c2cc3c(-c4ccc(NC(=O)Cc5c[nH]c6ccccc56)cc4)ncnn3c2)cn1` [Compound 23] were 10 to 100 nM and 1.01 to 10 nM.
For the compound `Cn1cc(-c2cc3c(-c4ccc(NS(=O)(=O)c5ccc(Cl)cc5)cc4)ncnn3c2)cn1` [Compound 36], the half-inhibitory concentration (IC50) in experiment [1] is 10 to 100 nM; at D816V Kit, less than 1 nM.
Taken in the same sequence, the figures for `CCC(=O)N1CC=C(c2cc3c(-c4ccc(NS(=O)(=O)c5ccc(Cl)cc5)cc4)ncnn3c2)CC1` [Compound 63] were 10 to 100 nM and less than 1 nM.
In the case of `CCOC(=O)N1CC=C(c2cc3c(-c4ccc(NS(=O)(=O)c5ccc(Cl)cc5)cc4)ncnn3c2)CC1` [Compound 64, ethyl 4-(4-(4-((4-chlorophenyl)sulfonamido)phenyl)pyrrolo[2,1-f][1,2,4]triazin-6-yl)-3,6-dihydropyridine-1(2H)-carboxylate], the figures for the IC50 (in experiment [1]; at D816V Kit) were 10 to 100 nM and 1.01 to 10 nM, respectively.
As to `CC(C)Oc1ccc(-c2cc3c(-c4ccc(NS(=O)(=O)c5ccc(Cl)cc5)cc4)ncnn3c2)cc1` [Compound 62, 4-chloro-N-(4-(6-(4-isopropoxyphenyl)pyrrolo[2,1-f][1,2,4]triazin-4-yl)phenyl)benzenesulfonamide], the half-maximal inhibitory concentration (IC50) in experiment [1] was 1000 to 10000 nM; at D816V Kit it was 10 to 100 nM.
With `CC[C@H](C(=O)Nc1ccc(-c2ncnn3cc(-c4cnn(C)c4)cc23)cc1)c1ccc(Cl)cc1` [Compound 44], the half-inhibitory concentration (IC50) was 100 to 1000 nM in experiment [1] and 10 to 100 nM on D816V Kit.
For `CC(C(=O)Nc1ccc(-c2ncnn3cc(-c4cnn(C)c4)cc23)cc1)c1ccc(Cl)cc1` (stereo not drawn) [Compound 29], in that order: less than 10 nM and 1.01 to 10 nM.
Turning to `Cn1cc(-c2cc3c(-c4ccc(NC(=O)[C@@](C)(N)c5ccc(Cl)cc5)cc4)ncnn3c2)cn1` [Compound 45, 2-amino-2-(4-chlorophenyl)-N-(4-(6-(1-methyl-1H-pyrazol-4-yl)pyrrolo[1,2-f][1,2,4]triazin-4-yl)phenyl)propanamide], the IC50 in experiment [1] was less than 10 nM; on D816V Kit it was 1.01 to 10 nM.
For `CC(C)(O)Cn1cc(-c2cc3c(-c4ccc(NC(=O)Cc5ccc(Cl)cc5)cc4)ncnn3c2)cn1` [Compound 60], in that order: 10 to 100 nM and 1.01 to 10 nM.
Taken in the same sequence, the figures for `Cn1cc(-c2cc3c(-c4ccc(NS(=O)(=O)c5ccccc5Cl)cc4)ncnn3c2)cn1` [Compound 38] were 1000 to 10000 nM and 10 to 100 nM.
`Cn1cc(-c2cc3c(-c4ccc(NC(=O)Cc5cccnc5)cc4)ncnn3c2)cn1` [Compound 4]: the half-inhibitory concentration (IC50) in experiment [1] was 1000 to 10000 nM; at D816V Kit, 1.01 to 10 nM.
Turning to `CO[C@H](C(=O)Nc1ccc(-c2ncnn3cc(-c4cnn(C)c4)cc23)cc1)c1ccc(Cl)cc1` [Compound 53], the IC50 in experiment [1] lay in the range of 100 to 1000 nM; at D816V Kit it was 10 to 100 nM.
Turning to `CN(C)C(C(=O)Nc1ccc(-c2ncnn3cc(-c4cnn(C)c4)cc23)cc1)c1ccc(Cl)cc1` (stereo not drawn) [Compound 59, 2-(4-chlorophenyl)-2-(dimethylamino)-N-(4-(6-(1-methyl-1H-pyrazol-4-yl)pyrrolo[1,2-f][1,2,4]triazin-4-yl)phenyl)acetamide], the values for the 50% inhibitory concentration (IC50) (in experiment [1]; at D816V Kit) were 10 to 100 nM and 1.01 to 10 nM, respectively.
Taken in the same sequence, the figures for `CC(C)S(=O)(=O)Nc1ccc(-c2ncnn3cc(-c4cnn(C)c4)cc23)cc1` [Compound 2] were greater than 10000 nM and 10 to 100 nM.
Turning to `CO[C@@H](C(=O)Nc1ccc(-c2ncnn3cc(-c4cnn(C)c4)cc23)cc1)c1ccc(Cl)cc1` [Compound 48], the IC50 in experiment [1] was less than 10 nM; on D816V Kit, less than 1 nM.
Taken in the same sequence, the figures for `Cn1cc(-c2cc3c(-c4ccc(NC(=O)[C@@H](O)c5ccc(Cl)cc5)cc4)ncnn3c2)cn1` [Compound 34, 2-(4-chlorophenyl)-2-hydroxy-N-(4-(6-(1-methyl-1H-pyrazol-4-yl)pyrrolo[1,2-f][1,2,4]triazin-4-yl)phenyl)acetamide] were 10 to 100 nM and 1.01 to 10 nM.
For `Cn1cc(-c2cc3c(-c4ccc(NC(=O)Cc5ccccc5Cl)cc4)ncnn3c2)cn1` [Compound 19], in that order: 100 to 1000 nM and 1.01 to 10 nM.
In the case of `Cn1cc(-c2cc3c(-c4ccc(NS(=O)(=O)c5ccc(F)cc5)cc4)ncnn3c2)cn1` [Compound 24], the IC50 in experiment [1] was in the range of 100 to 1000 nM; on D816V Kit, 1.01 to 10 nM.
Taken in the same sequence, the figures for `Cn1cc(-c2cc3c(-c4ccc(NS(=O)(=O)c5cccc(Cl)c5)cc4)ncnn3c2)cn1` [Compound 37] were 100 to 1000 nM and 10 to 100 nM.
Taken in the same sequence, the figures for `Cn1cc(-c2cc3c(-c4ccc(NC(=O)Cc5cccc(Cl)c5)cc4)ncnn3c2)cn1` [Compound 18] were 100 to 1000 nM and 1.01 to 10 nM.
Taken in the same sequence, the figures for `CC(C)(C)Oc1ccc(-c2cc3c(-c4ccc(NC(=O)Cc5ccc(Cl)cc5)cc4)ncnn3c2)cc1` [Compound 61] were 1000 to 10000 nM and 10 to 100 nM.
For the compound `Cn1cc(-c2cc3c(-c4ccc(NS(C)(=O)=O)cc4)ncnn3c2)cn1` [Compound 1], the half-maximal inhibitory concentration (IC50) is 1000 to 10000 nM in experiment [1] and 1.01 to 10 nM on D816V Kit.
Taken in the same sequence, the figures for `Cn1cc(-c2cc3c(-c4ccc(NC(=O)C(C)(N)c5ccc(Cl)cc5)cc4)ncnn3c2)cn1` (stereo not drawn) [Compound 47, 2-amino-2-(4-chlorophenyl)-N-(4-(6-(1-methyl-1H-pyrazol-4-yl)pyrrolo[1,2-f][1,2,4]triazin-4-yl)phenyl)propanamide] were less than 10 nM and 1.01 to 10 nM.
As for `COc1ccc(S(=O)(=O)Nc2ccc(-c3ncnn4cc(-c5cnn(C)c5)cc34)cc2)cc1` [Compound 35], the IC50 in experiment [1] was in the range of 100 to 1000 nM; at D816V Kit, 1.01 to 10 nM.
Turning to `Cn1cc(-c2cc3c(-c4ccc(NC(=O)NCc5ccccc5)cc4)ncnn3c2)cn1` [Compound 9, 1-benzyl-3-(4-(6-(1-methyl-1H-pyrazol-4-yl)pyrrolo[1,2-f][1,2,4]triazin-4-yl)phenyl)urea], the IC50 in experiment [1] was 100 to 1000 nM; on D816V Kit, 10 to 100 nM.
`Cn1cc(-c2cc3c(-c4ccc(NC(=O)Cc5ccccc5)cc4)ncnn3c2)cn1` [Compound 3]: the IC50 in experiment [1] fell in the range of 10 to 100 nM; on D816V Kit it was 1.01 to 10 nM.
Turning to `Cn1cc(-c2cc3c(-c4ccc(NC(=O)[C@H](O)c5ccc(Cl)cc5)cc4)ncnn3c2)cn1` [Compound 32, 2-(4-chlorophenyl)-2-hydroxy-N-(4-(6-(1-methyl-1H-pyrazol-4-yl)pyrrolo[1,2-f][1,2,4]triazin-4-yl)phenyl)acetamide], the IC50 in experiment [1] was less than 10 nM; on D816V Kit, less than 1 nM.
As for `Cn1cc(-c2cc3c(-c4ccc(NS(=O)(=O)c5ccccc5)cc4)ncnn3c2)cn1` [Compound 13], the 50% inhibitory concentration (IC50) in experiment [1] is 100 to 1000 nM; at D816V Kit, 1.01 to 10 nM.
Regarding `C[C@H](C(=O)Nc1ccc(-c2ncnn3cc(-c4cnn(C)c4)cc23)cc1)c1ccc(Cl)cc1` [Compound 30], the results for the IC50 (in experiment [1]; on D816V Kit) were 100 to 1000 nM and 10 to 100 nM, respectively.
